Laboratory results published in patent publication US11466044B2 (WAYNE STATE UNIVERSITY, priority 2017, dated 2022).
Converted amounts (≈) assume the structure as drawn.

Columns and labels:
E coli wild type = experiment: MIC by broth microdilution, wild type E coli; assay type: cell-based; conditions: for MIC AG160 E. coli WT: clinical isolate AG160 WT; for MIC AG160 E. coli WT / MIC pH430 E. coli WT: Table 2 (Example 4); for MIC pH430 E. coli WT: engineered strain pH430 WT; for MIC AG212 E. coli: strain AG212 E. coli (ATCC25922); for MIC50 E coli AG01: strain AG01; for MIC50 E coli AG03: strain AG03; for MIC50 E coli AG55: strain AG55
P aeruginosa = experiment: MIC by broth microdilution, P aeruginosa isolates; assay type: cell-based, Pseudomonas aeruginosa; conditions: for MIC AG220 P. aerugin: strain AG220 Pseudomonas aeruginosa ATCC27853; for MIC50 P aeruginosa AG31: strain AG31; for MIC50 P aeruginosa AG32: strain AG32; for MIC50 P aeruginosa AG33: strain AG33; for MIC50 P aeruginosa AG86: strain AG86
[1] = tested on: E coli carrying specific resistance determinants; experiment: MIC by broth microdilution, E coli carrying specific resistance determinants; assay type: cell-based; conditions: for MIC AG037 E. coli APH(3′)-III: engineered strain AG037 APH(3′)-III; for MIC pH421 E. coli APH(3′)-I: engineered strain pH421 APH(3′)-I; for MIC pH422 E. coli APH(3′)-II: engineered strain pH422 APH(3′)-II; for MIC pH423 E. coli APH(3′)-VI: engineered strain pH423 APH(3′)-VI
[2] = tested on: Klebsiella pneumonia AG215; experiment: MIC by broth microdilution, Klebsiella pneumonia; assay type: cell-based; conditions: strain AG215 Klebsiella pneumonia
[3] = tested on: Acinetobacter baumannii pittii AG225; experiment: MIC by broth microdilution, Acinetobacter baumannii; assay type: cell-based; conditions: strain AG225 Acinetobacter baumannii pittii
[4] = tested on: Enterobacter cloacae AG290; experiment: MIC by broth microdilution, Enterobacter cloacae; assay type: cell-based; conditions: strain AG290 Enterobacter cloacae
M. smegmatis SZ380 = experiment: MIC by broth microdilution, M. smegmatis; conditions: strain SZ380 Mycobacterium smegmatis
MRSA = experiment: MIC by broth microdilution, MRSA isolates; assay type: cell-based; conditions: for MIC50 MRSA AG38: strain AG38; for MIC50 MRSA AG39: strain AG39; for MIC50 MRSA AG42: strain AG42; for MIC50 MRSA AG44: strain AG44

Compound: CCC[C@@H]1C(CO)O[C@H](O[C@@H]2C(N)C[C@@H](N)C(O)[C@H]2O[C@@H]2O[C@H](CO)[C@H](O[C@H]3C[C@@H](CN)[C@@H](O)C(O)C3N)C2O)[C@@H](N)C1O (stereo partly shown) [Compound 116]
- MIC AG160 E. coli WT (E coli wild type): 1 µg/mL (≈ 1.56 µM)
- MIC pH430 E. coli WT (E coli wild type): 0.5 μg/ml
- MIC AG212 E. coli (E coli wild type): 2 µg/mL (≈ 3.13 µM)
- MIC AG220 P. aerugin (P aeruginosa): 4 µg/mL (≈ 6.25 µM)
- MIC AG163 E. coli APH(3′)-I ([1]; clinical isolate AG163 APH(3′)-I, Table 2 (Example 4)): >64 µg/mL
- MIC AG166 E. coli APH(3′)-II ([1]; clinical isolate AG166 APH(3′)-II, Table 2 (Example 4)): 2 to 4 µg/mL
- MIC AG037 E. coli APH(3′)-III ([1]; Table 2 (Example 4)): >64 µg/mL
- MIC pH421 E. coli APH(3′)-I ([1]; Table 2 (Example 4)): >32 μg/ml
- MIC pH422 E. coli APH(3′)-II ([1]; Table 2 (Example 4)): 0.5 μg/ml
- MIC pH423 E. coli APH(3′)-VI ([1]; Table 2 (Example 4)): 1 μg/ml
- MIC AG215 K. pneumon [2]: 1 µg/mL (≈ 1.56 µM)
- MIC AG225 A. baumannii [3]: 2 µg/mL (≈ 3.13 µM)
- MIC AG290 E. cloacae [4]: 1 µg/mL (≈ 1.56 µM)
- MIC SZ380 M. smegmatis (M. smegmatis SZ380): 1 µg/mL (≈ 1.56 µM)

Compound: 5″-Deoxy-5″-ureido-paromomycin acetate salt [Compound 141]
- MIC50 MRSA AG38 (MRSA; Table 1 (Example 1)): 4 to 8 µg/mL
- MIC50 MRSA AG39 (MRSA; Table 1 (Example 1)): >128 µg/mL
- MIC50 MRSA AG42 (MRSA; Table 1 (Example 1)): >128 µg/mL
- MIC50 MRSA AG44 (MRSA; Table 1 (Example 1)): 4 µg/mL
- MIC E coli AG006 wt (E coli wild type; AG006 wt, Table 2 (Example 1)): 1 µg/mL
- MIC AG160 E. coli WT (E coli wild type): 4 µg/mL
- MIC pH430 E. coli WT (E coli wild type): 2-4 μg/ml
- MIC50 E coli AG01 (E coli wild type; Table 1 (Example 1)): 16 µg/mL
- MIC50 E coli AG03 (E coli wild type; Table 1 (Example 1)): 16 µg/mL
- MIC50 E coli AG55 (E coli wild type; Table 1 (Example 1)): 16 µg/mL
- MIC AG212 E. coli (E coli wild type): 4 µg/mL
- MIC50 P aeruginosa AG31 (P aeruginosa; Table 1 (Example 1)): >128 µg/mL
- MIC50 P aeruginosa AG32 (P aeruginosa; Table 1 (Example 1)): >128 µg/mL
- MIC50 P aeruginosa AG33 (P aeruginosa; Table 1 (Example 1)): >128 µg/mL
- MIC50 P aeruginosa AG86 (P aeruginosa; Table 1 (Example 1)): >128 µg/mL
- MIC AG220 P. aerugin (P aeruginosa): >64 µg/mL
- MIC AG037 E. coli APH(3′)-III ([1]; Table 2 (Example 4)): >128 µg/mL
- MIC pH421 E. coli APH(3′)-I ([1]; Table 2 (Example 4)): >64 μg/ml
- MIC pH422 E. coli APH(3′)-II ([1]; Table 2 (Example 4)): >64 μg/ml
- MIC pH423 E. coli APH(3′)-VI ([1]; Table 2 (Example 4)): >64 μg/ml
- MIC AG215 K. pneumon [2]: 2 µg/mL
- MIC AG225 A. baumannii [3]: 4 µg/mL
- MIC AG290 E. cloacae [4]: 2 to 4 µg/mL
- MIC SZ380 M. smegmatis (M. smegmatis SZ380): 2 µg/mL

Compound: CCCC(O)C1OC(OC2C(N)CC(N)C(O)C2OC2OC(CO)C(OC3OC(CN)C(O)C(O)C3N)C2O)C(N)C(O)C1O (stereo not shown) [Compound 143]
- MIC50 MRSA AG38 (MRSA; Table 1 (Example 2)): 32 to 64 µg/mL
- MIC50 MRSA AG39 (MRSA; Table 1 (Example 2)): >64 µg/mL
- MIC50 MRSA AG42 (MRSA; Table 1 (Example 2)): >64 µg/mL
- MIC50 MRSA AG44 (MRSA; Table 1 (Example 2)): 16 µg/mL (≈ 24.3 µM)
- MIC50 E coli BM13 (AG06) wt (E coli wild type; BM13 (AG06) wt, Table 2A (Example 2)): 4 µg/mL (≈ 6.08 µM)
- MIC50 E coli pH430 WT (E coli wild type; pH430 WT, Table 2B (Example 2)): 4 μg/ml
- MIC50 E coli AG01 (E coli wild type; Table 1 (Example 2)): 32 µg/mL (≈ 48.7 µM)
- MIC50 E coli AG03 (E coli wild type; Table 1 (Example 2)): 32 µg/mL (≈ 48.7 µM)
- MIC50 E coli AG55 (E coli wild type; Table 1 (Example 2)): 32 µg/mL (≈ 48.7 µM)
- MIC AG212 E. coli (E coli wild type): 8 µg/mL (≈ 12.2 µM)
- MIC50 P aeruginosa AG31 (P aeruginosa; Table 1 (Example 2)): >64 µg/mL
- MIC50 P aeruginosa AG32 (P aeruginosa; Table 1 (Example 2)): >64 µg/mL
- MIC50 P aeruginosa AG33 (P aeruginosa; Table 1 (Example 2)): >64 µg/mL
- MIC50 P aeruginosa AG86 (P aeruginosa; Table 1 (Example 2)): >64 µg/mL
- MIC AG220 P. aerugin (P aeruginosa): >128 µg/mL
- MIC50 E coli AG036 ANT(4′,4″) ([1]; AG036 ANT(4′,4″), Table 2B (Example 2)): 64 µg/mL (≈ 97.3 µM)
- MIC50 E coli AG037 APH(3′)-III ([1]; AG037 APH(3′)-III, Table 2B (Example 2)): >128 µg/mL
- MIC50 E coli AG103 armA ([1]; AG103 armA, Table 2B (Example 2)): 16 to 32 µg/mL
- MIC50 E coli pH421 APH(3′)-I ([1]; pH421 APH(3′)-I, Table 2B (Example 2)): >128 μg/ml
- MIC50 E coli pH422 APH(3′)-II ([1]; pH422 APH(3′)-II, Table 2B (Example 2)): >128 μg/ml
- MIC50 E coli pH423 APH(3)-VI ([1]; pH423 APH(3)-VI, Table 2B (Example 2)): 32-64 μg/ml
- MIC50 E coli pH432 ANT(4′) ([1]; pH432 ANT(4′), Table 2B (Example 2)): 4 μg/ml
- MIC AG215 K. pneumon [2]: 4 µg/mL (≈ 6.08 µM)
- MIC AG225 A. baumannii [3]: 4 to 8 µg/mL
- MIC AG290 E. cloacae [4]: 4 to 8 µg/mL
- MIC SZ380 M. smegmatis (M. smegmatis SZ380): 16 µg/mL (≈ 24.3 µM)
